ChEMBL document CHEMBL1201862, “PubChem BioAssay data set” (2004)
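The compound was tested at five concentrations on cells cultured in 96-well plates, with a 48-hour exposure period. At the GI50, growth is halved.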 Active and inactive are the calls of the source. No stated cut-off is given here; in the data, active = GI50 up to about 1.1 µM and inactive = higher.

Columns and labels:
Assay in all cases: growth of human tumour cells (NCI), 48 h
[1] = test system: A498
[2] = test system: HCT-15
[3] = test system: HL-60
[4] = test system: HT-29
[5] = test system: KM12
[6] = test system: MDA-MB-231
[7] = test system: MDA-N
[8] = test system: NCI-H226
[9] = test system: NCI-H460
[10] = test system: OVCAR-8
[11] = test system: RPMI-8226
[12] = test system: SF-295
[13] = test system: SK-MEL-5
[14] = test system: SK-OV-3
[15] = test system: TK-10
[16] = test system: NCI-H522
[17] = test system: SR

| SMILES | GI50 [1] | GI50 [2] | GI50 [3] | GI50 [4] | GI50 [5] | GI50 [6] | GI50 [7] | GI50 [8] | GI50 [9] | GI50 [10] | GI50 [11] | GI50 [12] | GI50 [13] | GI50 [14] | GI50 [15] | GI50 [16] | GI50 [17] |
| --- | --- | --- | --- | --- | --- | --- | --- | --- | --- | --- | --- | --- | --- | --- | --- | --- | --- |
| Cc1nc2c(O)nc3ccccc3c2o1 | > 100 µM (inactive) | > 100 µM | > 100 µM (inactive) | > 100 µM (inactive) | > 100 µM (inactive) | > 100 µM (inactive) | > 100 µM (inactive) | > 100 µM (inactive) | > 100 µM (inactive) | > 100 µM (inactive) | > 100 µM (inactive) | > 100 µM (inactive) | > 100 µM (inactive) | > 100 µM (inactive) | > 100 µM (inactive) |  |  |
| N#CC(c1ccc(O)cc1)N1CCN(C(C#N)c2ccc(O)cc2)CC1 (centres undefined) | > 100 µM (inactive) | 97.3 µM | > 100 µM (inactive) | > 100 µM (inactive) | > 100 µM (inactive) | 21.9 µM (inactive) |  | 34.3 µM (inactive) |  | 24.3 µM (inactive) | > 100 µM (inactive) | 38.3 µM (inactive) | > 100 µM (inactive) | 28.6 µM (inactive) | > 100 µM (inactive) | > 100 µM (inactive) | > 100 µM (inactive) |
| CC1=C(C)CC2C(=O)N(c3cc(C(C)(C)C)ccc3C(C)(C)C)C(=O)C2C1 (centres undefined) |  | > 100 µM | > 100 µM (inactive) | > 100 µM (inactive) | > 100 µM (inactive) | > 100 µM (inactive) | > 100 µM (inactive) | > 100 µM (inactive) | > 100 µM (inactive) | > 100 µM (inactive) | > 100 µM (inactive) | 48.2 µM (inactive) | > 100 µM (inactive) | 58.3 µM (inactive) | 66.1 µM (inactive) | 8.2 µM (inactive) | > 100 µM (inactive) |
| CCOC(=O)C(NC(=O)OC(C)(C)C)C(=O)OCC |  | > 100 µM |  | > 100 µM (inactive) | > 100 µM (inactive) |  |  |  | > 100 µM (inactive) | > 100 µM (inactive) | > 100 µM (inactive) |  | 64.1 µM (inactive) | > 100 µM (inactive) | > 100 µM (inactive) | > 100 µM (inactive) | > 100 µM (inactive) |
| COc1c(Br)cc2ccccc2c1-c1c(OC)c(Br)cc2ccccc12 | > 100 µM (inactive) | > 100 µM | 25.6 µM (inactive) | > 100 µM (inactive) | 79.1 µM (inactive) | > 100 µM (inactive) | > 100 µM (inactive) | > 100 µM (inactive) | > 100 µM (inactive) | > 100 µM (inactive) | 80.5 µM (inactive) | > 100 µM (inactive) | 67.5 µM (inactive) | > 100 µM (inactive) | > 100 µM (inactive) | 74.6 µM (inactive) |  |
| Cc1ccc(-c2nc(N/N=C/c3ccc(O)cc3)c3ccccc3n2)cc1 |  | 16.4 µM | 17.2 µM (inactive) | 27.7 µM (inactive) | 13.5 µM (inactive) | 19.4 µM (inactive) | 7.87 µM (inactive) | 21.5 µM (inactive) | 9.91 µM (inactive) | 22.9 µM (inactive) | 40.7 µM (inactive) | 17.9 µM (inactive) | 3.51 µM (inactive) | 20.3 µM (inactive) | 24.3 µM (inactive) | 14.2 µM (inactive) | 39.4 µM (inactive) |
| COc1cc(OC)c(OC)cc1/C=C/c1cc[n+](C)c2ccccc12 | > 100 µM (inactive) | > 100 µM | 14 µM (inactive) | 30.5 µM (inactive) | 19.8 µM (inactive) |  | 24.3 µM (inactive) |  | 33.2 µM (inactive) | 9.93 µM (inactive) | 21.2 µM (inactive) | 15.3 µM (inactive) | 11 µM (inactive) | 52.2 µM (inactive) | > 100 µM (inactive) |  | 17.8 µM (inactive) |
| N#CCCN(CCC#N)c1ccc(C(=N/c2ccc(Cl)cc2)/N=N/c2ccccc2)cc1 | > 100 µM (inactive) | 27.4 µM |  | > 100 µM (inactive) | 58.5 µM (inactive) | > 100 µM (inactive) | > 100 µM (inactive) | > 100 µM (inactive) | 55.1 µM (inactive) | > 100 µM (inactive) | > 100 µM (inactive) | 10.9 µM (inactive) | 10.3 µM (inactive) | > 100 µM (inactive) | 88.5 µM (inactive) | 36.6 µM (inactive) |  |
| Cc1ccc(S(=O)(=O)CC2CCCn3c2c(C#N)c2ccccc23)cc1 (centres undefined) | > 100 µM (inactive) | > 100 µM |  | > 100 µM (inactive) | > 100 µM (inactive) | > 100 µM (inactive) |  | > 100 µM (inactive) |  | > 100 µM (inactive) | > 100 µM (inactive) | > 100 µM (inactive) | > 100 µM (inactive) | > 100 µM (inactive) | > 100 µM (inactive) | > 100 µM (inactive) |  |
| CC1(C)C[C@H](O)[C@H](O)[C@]23C(=O)O[C@H](O)[C@H]2C(C=O)=CC[C@@H]13 |  | > 100 µM | > 100 µM (inactive) | > 100 µM (inactive) | > 100 µM (inactive) | > 100 µM (inactive) | > 100 µM (inactive) | > 100 µM (inactive) | > 100 µM (inactive) | > 100 µM (inactive) | > 100 µM (inactive) | > 100 µM (inactive) | > 100 µM (inactive) |  | > 100 µM (inactive) | > 100 µM (inactive) | > 100 µM (inactive) |
| COc1ccc(C)cc1N1C(=O)C2ON(Cc3ccc(CC(N)=O)cc3)C(c3c4ccccc4c(Cl)c4ccccc34)C2C1=O (centres undefined) |  | 22.4 µM | 27.6 µM (inactive) | 20.3 µM (inactive) | 14 µM (inactive) | 19.9 µM (inactive) | 14.6 µM (inactive) |  | 18.4 µM (inactive) | 27.6 µM (inactive) |  | 22.9 µM (inactive) |  | 31.8 µM (inactive) | 23.1 µM (inactive) | 32.1 µM (inactive) | 12.8 µM (inactive) |
| COC(=O)c1ccc(/C=N/c2cc(C)nn2-c2ccccc2)cc1 |  | 13.7 µM | 20.1 µM (inactive) | 22.2 µM (inactive) | 24.2 µM (inactive) | > 100 µM (inactive) | 13.8 µM (inactive) | 89.5 µM (inactive) | 10.6 µM (inactive) | 73.8 µM (inactive) | 20.4 µM (inactive) | 35.8 µM (inactive) | 19.4 µM (inactive) | 34.4 µM (inactive) | 2.12 µM (inactive) | 28.8 µM (inactive) | 19.2 µM (inactive) |
| C/C(=N\n1c(Cc2ccccc2)n[nH]c1=O)c1ccc([N+](=O)[O-])cc1 |  | > 100 µM | > 100 µM (inactive) | > 100 µM (inactive) | > 100 µM (inactive) | > 100 µM (inactive) | > 100 µM (inactive) | > 100 µM (inactive) | > 100 µM (inactive) | 69.7 µM (inactive) | 50.4 µM (inactive) | 91.8 µM (inactive) | > 100 µM (inactive) |  | > 100 µM (inactive) | > 100 µM (inactive) |  |
| Cc1ccc(S(=O)(=O)NN=C2C(C)(C)CC2(C)C)cc1 | > 100 µM (inactive) | > 100 µM | > 100 µM (inactive) | > 100 µM (inactive) | > 100 µM (inactive) | > 100 µM (inactive) | > 100 µM (inactive) | > 100 µM (inactive) | > 100 µM (inactive) | > 100 µM (inactive) |  | > 100 µM (inactive) | > 100 µM (inactive) | > 100 µM (inactive) | > 100 µM (inactive) | > 100 µM (inactive) |  |
| CCOC(=O)/C1=C(\C)N(c2ccc(C)cc2)C(=O)c2ccccc2C(=O)c2c(O)ccc(O)c21 |  | 14.4 µM | 19.1 µM (inactive) | 19.5 µM (inactive) | 23 µM (inactive) | 14.1 µM (inactive) |  | 42.4 µM (inactive) | 23.2 µM (inactive) | 18.9 µM (inactive) | 11.7 µM (inactive) | 16.9 µM (inactive) | 16.3 µM (inactive) | 35.9 µM (inactive) | 26.2 µM (inactive) | 18.7 µM (inactive) |  |
| CC(=O)OC(C)(C)[C@H]1O[C@]23O[C@]1(C)C[C@@H](C)[C@@H]2[C@@]1(C)CC[C@@]24C[C@@]25CC[C@H](O[C@@H]2OC[C@@H](O)[C@H](O)[C@H]2O)C(C)(C)[C@@H]5CC[C@H]4[C@]1(C)[C@H]3O | 6.44 µM (inactive) | 3.41 µM | 2.03 µM (inactive) | 8.38 µM (inactive) | 3.35 µM (inactive) | 4.61 µM (inactive) |  | 8.59 µM (inactive) | 7.4 µM (inactive) | 10.8 µM (inactive) | 7.69 µM (inactive) | 8 µM (inactive) | 10.3 µM (inactive) | 12.3 µM (inactive) | 10 µM (inactive) | 7.28 µM (inactive) | 3.18 µM (inactive) |
| O=NNc1cnc(O)nc1O | 92.7 µM (inactive) | > 100 µM | 49.3 µM (inactive) |  | > 100 µM (inactive) | > 100 µM (inactive) | > 100 µM (inactive) | > 100 µM (inactive) |  | > 100 µM (inactive) | > 100 µM (inactive) | > 100 µM (inactive) | > 100 µM (inactive) | > 100 µM (inactive) | > 100 µM (inactive) | > 100 µM (inactive) |  |
| CC1(C)CC[C@]2(C(=O)O)CC[C@]3(C)[C@H](C(=O)C=C4[C@@]5(C)C=C(C#N)C(=O)C(C)(C)[C@@H]5CC[C@]43C)[C@@H]2C1 [BARDOXOLONE] | 0.391 µM (active) | 0.113 µM | 0.205 µM (active) | 0.495 µM (active) | 0.279 µM (active) | 1.31 µM (inactive) |  | 0.416 µM (active) | 0.486 µM (active) | 0.577 µM (active) | 0.0214 µM (active) | 0.573 µM (active) | 0.258 µM (active) | 0.875 µM (active) | 0.678 µM (active) | 0.923 µM (active) | 0.0561 µM (active) |
